Article PMC7725003, “Systematically Studying the Optimal Amino Acid Distribution Patterns of the Amphiphilic Structure by Using the Ultrashort Amphiphiles” (Frontiers in Microbiology, 2020)
Where no end group is shown, it is not given here.

Experiments:
S. aureus 25923 = format: cell-based, Staphylococcus aureus; settings: 25923, 24 h
Description: (§1) The antimicrobial activities of the peptides were measured using a method adapted from the National Committee for Clinical Laboratory Standards (NCCLS) with some modifications ([Chou et al., 2016]). The specific procedure for these assays has been previously described. In brief, the bacterial cells were grown to a mid-logarithmic phase and diluted in MHB to an ultimate concentration of 0.5–1 × 10^6 CFU mL^–1. Subsequently, the peptides were consecutively diluted in a 0.2% BSA solution and then added to a bacterial solution in a 96-well plate at identical volumes. After incubation for 24 h at 37°C, the MICs were determined to be the lowest peptide concentration that inhibited 95% of the bacterial growth by monitoring the absorbance at 492 nm using a microplate reader. Subsequently, 50 μL of each incubation mixture was further transferred to agar plates and incubated overnight. The minimum bactericidal concentrations (MBCs) were determined as the lowest peptide concentration that killed greater than 99.9% of the bacterial cells. Every assay was reproduced more than 3 times.

S. aureus 29213 [1] = format: cell-based, Staphylococcus aureus; settings: 29213, 24 h
Description: as §1

S. pullorum 7913 = format: cell-based, Salmonella pullorum; settings: 7913, 24 h
Description: as §1

E. coli 25922 = format: cell-based, Escherichia coli; settings: 25922, 24 h
Description: as §1

E. coli UB1005 = format: cell-based, Escherichia coli; settings: UB1005, 24 h
Description: as §1

E. coli O78 = format: cell-based, Escherichia coli; settings: O78, 24 h
Description: as §1

Gram-positive bacteria = settings: for GM, Gram-positive bacteria: geometric mean of MICs (Table 3); for TI, Gram-positive bacteria: therapeutic index TI = MHC/GM MIC
Description: (§2) The antimicrobial activity of AMPs is the most decisive index for evaluating the clinical application of antimicrobial drugs.
as §1, with “The minimum bactericidal concentrations (MBCs) were determined as the lowest peptide concentration that killed greater than 99.9% of the bacterial cells.” left out

Gram-negative bacteria = settings: for GM, Gram-negative bacteria: geometric mean of MICs (Table 3); for TI, Gram-negative bacteria: therapeutic index TI = MHC/GM MIC
Description: as §2
as §1, with “The minimum bactericidal concentrations (MBCs) were determined as the lowest peptide concentration that killed greater than 99.9% of the bacterial cells.” left out

S. aureus 29213 [2] = assay: Salt sensitivity assay (MIC); format: cell-based, Staphylococcus aureus; settings: for MIC, FeCl3: 4 μM FeCl3; for MIC, NH4Cl: 6 μM NH4Cl; for MIC, ZnCl2: 8 μM ZnCl2; for MIC, MgCl2: 1 mM MgCl2; for MIC, CaCl2: 2 mM CaCl2; for MIC, KCl: 4.5 mM KCl; for MIC, NaCl: 150 mM NaCl; for MIC, Control: no added salt, three independent assays
Description: as §1
(§3) The salt sensitivities of the peptides were determined. E. coli ATCC 25922 and S. aureus ATCC 29213 were incubated in the presence of various ultimate concentrations of physiological salts (150 mM NaCl, 4.5 mM KCl, 6 μM NH4Cl, 8 μM ZnCl2, 1 mM MgCl2, 2mM CaCl2, and 4 μM FeCl3) according to our previous protocol ([Yang et al., 2019]). These tests were performed under the MICs, and three independent assays were performed.

[3] = tested on: Listeria monocytogenes CGMCC 1.1075; format: cell-based; settings: CGMCC 1.1075, 24 h
Description: as §1

B. subtilis 63501 = format: cell-based, Bacillus subtilis; settings: 63501, 24 h
Description: as §1

S. typhimurium 14028 = format: cell-based, Salmonella typhimurium; settings: 14028, 24 h
Description: as §1

S. typhimurium 7731 = format: cell-based, Salmonella typhimurium; settings: 7731, 24 h
Description: as §1

E. faecalis 29212 = format: cell-based, Enterococcus faecalis; settings: 29212, 24 h
Description: as §1

[4] = tested on: all of the tested bacterial strains; assay: Geometric mean of MICs, all tested bacterial strains; format: cell-based; settings: for GM, All: geometric mean of MICs across all tested strains; for TI, All: therapeutic index TI = MHC/GM MIC
Description: The antimicrobial activity of AMPs is the most decisive index for evaluating the clinical application of antimicrobial drugs. Many antimicrobial agents inhibit bacterial growth rather than kill the bacteria quickly, and long-term infections are pathogens that are not completely killed, which results in bacterial severe drug resistance. […] The geometric mean (GM) values of the MICs/MBCs of the two series across all of the tested bacterial strains are represented in Table 3, which depicts the average bacteriostatic/bactericidal level of a peptide.
as §1

S. epidermidis 12228 = format: cell-based, Staphylococcus epidermidis; settings: 12228, 24 h
Description: as §1

P. aeruginosa 27853 = format: cell-based, Pseudomonas aeruginosa; settings: 27853, 24 h
Description: as §1

MRSA 43300 = format: cell-based, methicillin-resistant S. aureus; settings: 43300, 24 h
Description: as §1

E. coli ATCC 25922 = assay: Salt sensitivity assay (MIC); format: cell-based, Escherichia coli; settings: for MIC, FeCl3: 4 μM FeCl3; for MIC, NH4Cl: 6 μM NH4Cl; for MIC, ZnCl2: 8 μM ZnCl2; for MIC, MgCl2: 1 mM MgCl2; for MIC, CaCl2: 2 mM CaCl2; for MIC, KCl: 4.5 mM KCl; for MIC, NaCl: 150 mM NaCl; for MIC, Control: no added salt, three independent assays
Description: as §1, §3

Substance: WRRWRWRWW-NH2 [W3]
- MBC (S. aureus 25923): 8 µM
- MIC (S. aureus 25923): 4 µM
- MBC (S. aureus 29213 [1]): 8 µM
- MIC (S. aureus 29213 [1]): 4 µM
- MBC (S. pullorum 7913): 4 µM
- MIC (S. pullorum 7913): 2 µM
- MBC (E. coli 25922): 8 µM
- MIC (E. coli 25922): 4 µM
- MBC (E. coli UB1005): 8 µM
- MIC (E. coli UB1005): 4 µM
- MBC (E. coli O78): 8 µM
- MIC (E. coli O78): 4 µM
- GM, Gram-positive bacteria (Gram-positive bacteria): 2.69 µM
- TI, Gram-positive bacteria (Gram-positive bacteria): 95.17
- GM, Gram-negative bacteria (Gram-negative bacteria): 4.67 µM
- TI, Gram-negative bacteria (Gram-negative bacteria): 54.82
- MIC, FeCl3 (S. aureus 29213 [2]): 8 µM
- MIC, NH4Cl (S. aureus 29213 [2]): 8 µM
- MIC, ZnCl2 (S. aureus 29213 [2]): 4 µM
- MIC, MgCl2 (S. aureus 29213 [2]): 4 µM
- MIC, CaCl2 (S. aureus 29213 [2]): 4 µM
- MIC, KCl (S. aureus 29213 [2]): 2 µM
- MIC, NaCl (S. aureus 29213 [2]): 8 µM
- MIC, Control (S. aureus 29213 [2]): 4 µM
- MBC [3]: 8 µM
- MIC [3]: 4 µM
- MBC (B. subtilis 63501): 2 µM
- MIC (B. subtilis 63501): 1 µM
- MBC (S. typhimurium 14028): 8 µM
- MIC (S. typhimurium 14028): 4 µM
- MBC (S. typhimurium 7731): 16 µM
- MIC (S. typhimurium 7731): 8 µM
- MBC (E. faecalis 29212): 8 µM
- MIC (E. faecalis 29212): 4 µM
- GM, All [4]: 3.67 µM
- TI, All [4]: 69.75
- MBC (S. epidermidis 12228): 4 µM
- MIC (S. epidermidis 12228): 2 µM
- MBC (P. aeruginosa 27853): 8 µM
- MIC (P. aeruginosa 27853): 4 µM
- MBC (MRSA 43300): 4 µM
- MIC (MRSA 43300): 2 µM
- MIC, FeCl3 (E. coli ATCC 25922): 8 µM
- MIC, NH4Cl (E. coli ATCC 25922): 4 µM
- MIC, ZnCl2 (E. coli ATCC 25922): 8 µM
- MIC, MgCl2 (E. coli ATCC 25922): 8 µM
- MIC, CaCl2 (E. coli ATCC 25922): 8 µM
- MIC, KCl (E. coli ATCC 25922): 8 µM
- MIC, NaCl (E. coli ATCC 25922): 16 µM
- MIC, Control (E. coli ATCC 25922): 4 µM

Substance: WRRWRWWRW-NH2 [W12]
- MBC (S. aureus 25923): 4 µM
- MIC (S. aureus 25923): 2 µM
- MBC (S. aureus 29213 [1]): 4 µM
- MIC (S. aureus 29213 [1]): 2 µM
- MBC (S. pullorum 7913): 8 µM
- MIC (S. pullorum 7913): 4 µM
- MBC (E. coli 25922): 8 µM
- MIC (E. coli 25922): 4 µM
- MBC (E. coli UB1005): 8 µM
- MIC (E. coli UB1005): 4 µM
- MBC (E. coli O78): 8 µM
- MIC (E. coli O78): 4 µM
- GM, Gram-positive bacteria (Gram-positive bacteria): 2.00 µM
- TI, Gram-positive bacteria (Gram-positive bacteria): 64.00
- GM, Gram-negative bacteria (Gram-negative bacteria): 4.32 µM
- TI, Gram-negative bacteria (Gram-negative bacteria): 29.63
- MIC, FeCl3 (S. aureus 29213 [2]): 2 µM
- MIC, NH4Cl (S. aureus 29213 [2]): 2 µM
- MIC, ZnCl2 (S. aureus 29213 [2]): 2 µM
- MIC, MgCl2 (S. aureus 29213 [2]): 2 µM
- MIC, CaCl2 (S. aureus 29213 [2]): 2 µM
- MIC, KCl (S. aureus 29213 [2]): 2 µM
- MIC, NaCl (S. aureus 29213 [2]): 4 µM
- MIC, Control (S. aureus 29213 [2]): 2 µM
- MBC [3]: 4 µM
- MIC [3]: 2 µM
- MBC (B. subtilis 63501): 2 µM
- MIC (B. subtilis 63501): 1 µM
- MBC (S. typhimurium 14028): 8 µM
- MIC (S. typhimurium 14028): 4 µM
- MBC (S. typhimurium 7731): 16 µM
- MIC (S. typhimurium 7731): 8 µM
- MBC (E. faecalis 29212): 8 µM
- MIC (E. faecalis 29212): 4 µM
- GM, All [4]: 3.08 µM
- TI, All [4]: 41.56
- MBC (S. epidermidis 12228): 4 µM
- MIC (S. epidermidis 12228): 2 µM
- MBC (P. aeruginosa 27853): 8 µM
- MIC (P. aeruginosa 27853): 4 µM
- MBC (MRSA 43300): 4 µM
- MIC (MRSA 43300): 2 µM
- MIC, FeCl3 (E. coli ATCC 25922): 4 µM
- MIC, NH4Cl (E. coli ATCC 25922): 4 µM
- MIC, ZnCl2 (E. coli ATCC 25922): 2 µM
- MIC, MgCl2 (E. coli ATCC 25922): 4 µM
- MIC, CaCl2 (E. coli ATCC 25922): 16 µM
- MIC, KCl (E. coli ATCC 25922): 4 µM
- MIC, NaCl (E. coli ATCC 25922): 32 µM
- MIC, Control (E. coli ATCC 25922): 4 µM
